We go through two compounds from patent US6352958B1, “Cycloimido-substituted benzofused heterocyclic herbicides” (FMC Corporation, priority 1997, dated 2002).

The structures appear in SMILES notation.

Holding throughout (assay type): in vivo
The subject of assay [1] is soybean (Glycine max var. Winchester). The assay can be described thus: Postemergence herbicidal activity, soybean. To be noted: rate of application 0.3 Kg/Ha, rated after 12-17 days. On the procedure:
(§1) The benzofused heterocyclic compounds of this invention were tested for pre- and postemergence herbicidal activity using a variety of crops and weeds. The test plants included soybean (Glycine max var. Winchester), field corn (Zea mays var. Pioneer 3732), wheat (Triticum aestivum var. Lew), morningglory (Ipomea lacunosa or Ipomea hederacea), velvetleaf (Abutilon theophrasti), green foxtail (Setaria viridis), Johnsongrass (Sorghum halepense), blackgrass (Aloepecurus myosuroides), common chickweed (Stellaria media), and common cocklebur (Xanthium strumarium L.).
(§2) For preemergence testing, two disposable fiber flats (8 cm×15 cm×25 cm) for each rate of application of each candidate herbicide were filled to an approximate depth of 6.5 cm with steam-sterilized sandy loam soil. The soil was leveled and impressed with a template to provide five evenly spaced furrows 13 cm long and 0.5 cm deep in each flat. Seeds of soybean, wheat, corn, green foxtail, and johnsongrass were planted in the furrows of the first flat, and seeds of velvetleaf, morningglory, common chickweed, cocklebur, and blackgrass were planted in the furrows of the second flat. The five-row template was employed to firmly press the seeds into place. A topping soil of equal portions of sand and sandy loam soil was placed uniformly on top of each flat to a depth of approximately 0.5 cm. Flats for postemergence testing were prepared in the same manner except that they were planted 9-14 days prior to the preemergence flats and were placed in a greenhouse and watered, thus allowing the seeds to germinate and the foliage to develop.
(§3) In both pre- and postemergence tests, a stock solution of the candidate herbicide was prepared by dissolving 0.27 g of the compound in 20 mL of water/acetone (50/50) containing 0.5% v/v sorbitan monolaurate. For an application rate of 3000 g/ha of herbicide a 10 mL portion of the stock solution was diluted with water/acetone (50/50) to 45 mL.
(§4) The preemergence flats were initially subjected to a light water spray. The four flats were placed two by two along a conveyor belt (i.e., the two preemergence followed by the two postemergence flats). The conveyor belt fed under a spray nozzle mounted about ten inches above the post-emergent foliage. The preemergent flats were elevated on the belt so that the soil surface was at the same level below the spray nozzle as the foliage canopy of the postemergent plants. The spray of herbicidal solution was commenced and once stabilized, the flats were passed under the spray at a speed to receive a coverage equivalent of 100 L/ha. At this coverage the application rates are those shown in the above table for the individual herbicidal solutions. The preemergence flats were watered immediately thereafter, placed in the greenhouse and watered regularly at the soil surface. The postemergence flats were immediately placed in the green-house and not watered until 24 hours after treatment with the test solution. Thereafter they were regularly watered at ground level. After 12-17 days the plants were examined and the phytotoxicity data were recorded.
(§5) Phytotoxicity data were taken as percent control. Percent control was determined by a method similar to the 0 to 100 rating system disclosed in “Research Methods in Weed Science,” 2nd ed., B. Truelove, Ed.; Southern Weed Science Society; Auburn University, Auburn, Ala., 1977.

The test system of assay [2] is Johnsongrass (Sorghum halepense). The assay can be described thus: Postemergence herbicidal activity, johnsongrass. To be noted: rate of application 0.3 Kg/Ha, rated after 12-17 days. The procedure:
as §1, §2, §3, §4, §5

The subject of assay [3] is morningglory (Ipomea lacunosa or Ipomea hederacea). In words: Postemergence herbicidal activity, morningglory. The conditions noted are these: rate of application 0.3 Kg/Ha, rated after 12-17 days. On the procedure:
as §1, §2, §3, §4, §5

The subject of assay [4] is green foxtail (Setaria viridis). The assay can be described thus: Preemergence herbicidal activity, green foxtail. To be noted: Rate of Application 0.3 Kg/Ha, examined after 12-17 days. On the procedure:
as §1, §2, §3, §4, §5

Assay [5] shares this test system. In words: Postemergence herbicidal activity, green foxtail. The conditions noted are these: rate of application 0.3 Kg/Ha, rated after 12-17 days. On the procedure:
as §1, §2, §3, §4, §5

For assay [6], the system named is wheat (Triticum aestivum var. Lew). In words: Postemergence herbicidal activity, wheat. The conditions noted are these: rate of application 0.3 Kg/Ha, rated after 12-17 days. The procedure:
as §1, §2, §3, §4, §5

Assay [7] relates to field corn (Zea mays var. Pioneer 3732). The assay can be described thus: Postemergence herbicidal activity, corn. The conditions noted are these: rate of application 0.3 Kg/Ha, rated after 12-17 days. The procedure:
as §1, §2, §3, §4, §5

Assay [8] shares this test system. The assay can be described thus: Preemergence herbicidal activity, corn. The conditions noted are these: Rate of Application 0.3 Kg/Ha, examined after 12-17 days. The procedure:
as §1, §2, §3, §4, §5

For assay [9], the system named is common cocklebur (Xanthium strumarium L.). The assay can be described thus: Preemergence herbicidal activity, cocklebur. To be noted: Rate of Application 0.3 Kg/Ha, examined after 12-17 days. The procedure:
as §1, §2, §3, §4, §5

Assay [10] has as its system Johnsongrass (Sorghum halepense). The assay can be described thus: Preemergence herbicidal activity, johnsongrass. To be noted: Rate of Application 0.3 Kg/Ha, examined after 12-17 days. The procedure: as §1, §2, §3, §4, §5
Assay [11] relates to common cocklebur (Xanthium strumarium L.). In words: Postemergence herbicidal activity, cocklebur. To be noted: rate of application 0.3 Kg/Ha, rated after 12-17 days. On the procedure:
as §1, §2, §3, §4, §5

Assay [12] has as its system common chickweed (Stellaria media). The assay can be described thus: Preemergence herbicidal activity, chickweed. To be noted: Rate of Application 0.3 Kg/Ha, examined after 12-17 days. On the procedure:
as §1, §2, §3, §4, §5

Assay [13] relates to morningglory (Ipomea lacunosa or Ipomea hederacea). In words: Preemergence herbicidal activity, morningglory. To be noted: Rate of Application 0.3 Kg/Ha, examined after 12-17 days. On the procedure: as §1, §2, §3, §4, §5
The test system of assay [14] is velvetleaf (Abutilon theophrasti). In words: Postemergence herbicidal activity, velvetleaf. The conditions noted are these: rate of application 0.3 Kg/Ha, rated after 12-17 days. The procedure: as §1, §2, §3, §4, §5
Assay [15] has the same test system. In words: Preemergence herbicidal activity, velvetleaf. The conditions noted are these: Rate of Application 0.3 Kg/Ha, examined after 12-17 days. The procedure:
as §1, §2, §3, §4, §5

The subject of assay [16] is soybean (Glycine max var. Winchester). The assay can be described thus: Preemergence herbicidal activity, soybean. The conditions noted are these: Rate of Application 0.3 Kg/Ha, examined after 12-17 days. On the procedure:
as §1, §2, §3, §4, §5

Assay [17] deals with common chickweed (Stellaria media). The assay can be described thus: Postemergence herbicidal activity, chickweed. The conditions noted are these: rate of application 0.3 Kg/Ha, rated after 12-17 days. The procedure: as §1, §2, §3, §4, §5
Assay [18] relates to wheat (Triticum aestivum var. Lew). The assay can be described thus: Preemergence herbicidal activity, wheat. The conditions noted are these: Rate of Application 0.3 Kg/Ha, examined after 12-17 days. On the procedure: as §1, §2, §3, §4, §5

For `Cn1c(C(F)(F)F)cc(=O)n(-c2ccc(Cl)c3cc(C(Br)Br)oc23)c1=O` [Compound 233], the “Postemergence herbicidal activity (% control) SOY” value in assay [1] amounted to 90%. Moreover, the “Postemergence herbicidal activity (% control) SORHA” value in assay [2] came out at 30%. In assay [3], the “Postemergence herbicidal activity (% control) IPOSS” value is 100%. For the same compound, the “PREEMERGENCE HERBICIDAL ACTIVITY (% CONTROL) SETVI” value in [4] was 60%. The “Postemergence herbicidal activity (% control) SETVI” value in assay [5] stood at 30%. Further, the “Postemergence herbicidal activity (% control) WHT” value in assay [6] turned out to be 30%. The “Postemergence herbicidal activity (% control) CRN” value in [7] was found to be 60%. Further, in [8], the “PREEMERGENCE HERBICIDAL ACTIVITY (% CONTROL) CRN” value is recorded as 70%. The “PREEMERGENCE HERBICIDAL ACTIVITY (% CONTROL) XANPE” value in assay [9] is 20%. The “PREEMERGENCE HERBICIDAL ACTIVITY (% CONTROL) SORHA” value in [10] was 50%. The “Postemergence herbicidal activity (% control) XANPE” value in assay [11] was determined as 30%. Also, the “PREEMERGENCE HERBICIDAL ACTIVITY (% CONTROL) STEME” value in assay [12] worked out at 20%. For the same compound, the “PREEMERGENCE HERBICIDAL ACTIVITY (% CONTROL) IPOSS” value in assay [13] is reported as 95%. For the same compound, the “Postemergence herbicidal activity (% control) ABUTH” value in [14] worked out at 100%. Further, in assay [15], the “PREEMERGENCE HERBICIDAL ACTIVITY (% CONTROL) ABUTH” value amounted to 100%. The “PREEMERGENCE HERBICIDAL ACTIVITY (% CONTROL) SOY” value in [16] is recorded as 40%. Further, the “Postemergence herbicidal activity (% control) STEME” value in [17] worked out at 30%. The “PREEMERGENCE HERBICIDAL ACTIVITY (% CONTROL) WHT” value in assay [18] is recorded as 30%.
Regarding `CC(O)c1cc2c(Cl)cc(F)c(-n3c(=O)cc(C(F)(F)F)n(C)c3=O)c2o1` (stereo not drawn) [Compound 240], the “Postemergence herbicidal activity (% control) SOY” value in assay [1] stood at 95%. In addition, the “Postemergence herbicidal activity (% control) SORHA” value in [2] was found to be 100%. Also, in assay [3], the “Postemergence herbicidal activity (% control) IPOSS” value came out at 100%. Besides, the “PREEMERGENCE HERBICIDAL ACTIVITY (% CONTROL) SETVI” value in [4] was 100%. Besides, the “Postemergence herbicidal activity (% control) SETVI” value in assay [5] came to 100%. In assay [6], the “Postemergence herbicidal activity (% control) WHT” value amounted to 95%. Further, the “Postemergence herbicidal activity (% control) CRN” value in assay [7] was found to be 100%. Also, the “PREEMERGENCE HERBICIDAL ACTIVITY (% CONTROL) CRN” value in assay [8] came to 95%. In addition, in [9], the “PREEMERGENCE HERBICIDAL ACTIVITY (% CONTROL) XANPE” value is 100%. The “PREEMERGENCE HERBICIDAL ACTIVITY (% CONTROL) SORHA” value in assay [10] amounted to 100%. In [11], the “Postemergence herbicidal activity (% control) XANPE” value is listed as 100%. For the same compound, in assay [12], the “PREEMERGENCE HERBICIDAL ACTIVITY (% CONTROL) STEME” value turned out to be 100%. In assay [13], the “PREEMERGENCE HERBICIDAL ACTIVITY (% CONTROL) IPOSS” value is given as 100%. Besides, the “Postemergence herbicidal activity (% control) ABUTH” value in assay [14] was found to be 100%. Besides, in assay [15], the “PREEMERGENCE HERBICIDAL ACTIVITY (% CONTROL) ABUTH” value is listed as 100%. Also, in assay [16], the “PREEMERGENCE HERBICIDAL ACTIVITY (% CONTROL) SOY” value is 100%. The “Postemergence herbicidal activity (% control) STEME” value in assay [17] came to 100%. The “PREEMERGENCE HERBICIDAL ACTIVITY (% CONTROL) WHT” value in assay [18] amounted to 95%.
